{"source": "patent US20210078917A1", "about": "“FUNGICIDAL FERTILIZER COMPOSITION COMPRISING POTASSIUM PHOSPHITE AND GAMMA-POLY-GLUTAMIC ACID” (JIANGSU HUIFENG BIO AGRICULTURE CO., LTD., priority 2018, published 2021)", "key": {"tomato": {"tested_on": "tomato", "assay": "Yield increase and quality test of tomato", "type": "in vivo", "conditions": "600 g per mu, sprayed during the seedling stage", "description": "[…]. This fertilizer was applied on the basis of conventional fertilization in each treatment area. Fertilization method: The fertilizer was applied by spraying during the seedling stage of tomato. The yield, quality and control effect on disease on tomato were determined."}, "Disease (blight)": {"tested_on": "Disease (blight)", "assay": "Disease control test of pepper, blight", "type": "in vivo", "conditions": "400 g per mu", "description": "(§1) This fertilizer was applied on the basis of conventional fertilization in each treatment area. Fertilization method: The fertilizer was applied by spraying during the seedling stage of pepper. The yield, quality and control effect on disease on pepper were determined."}, "soybean": {"tested_on": "soybean", "assay": "Yield increase test of soybean", "type": "in vivo", "conditions": "4000 g effective ingredient per mu", "description": "(§2) Fertilization method: The fertilizer was co-applied with other fertilizers. The yield, quality and control effect on disease on soybean were determined."}, "potatoes": {"tested_on": "potatoes", "assay": "Yield increase test of potatoes (field)", "type": "in vivo, potato", "conditions": "amount 7000 g active ingredient/mu, base fertilizer", "description": "(§3) (1) Yield increase and disease control test of potatoes with fungicidal fertilizer composition of the present invention. This test was conducted in 2017 in Anding District, Dingxi City, Gansu Province. This area is a typical semi-arid rain-fed agricultural area. The soil type is loessial soil, with deep soil layers and uniform soil fertility. The previous crop is rape. The fertilizer of the present invention was totally applied as a base fertilizer at a time. […] Ridging after flat planting in wide and narrow rows was adopted. The wide row spacing was 60 cm, the narrow row spacing was 30 cm, the plant spacing was 30 cm, the sowing depth was 15 cm, and the plant density was 58,000 plants·hm^−2. Other field management was the same as that in large area of field. The number of large- and medium-sized potatoes ([…]) per plant was randomly determined, and the relative increase rate of large- and medium-sized potatoes was determined. The yield per mu and the relative increase rate of yield were determined. The crude starch content and increase rate of crude starch content were determined. The control effect on root rot of potatoes was also determined."}, "[1]": {"tested_on": "root rot, a soil-borne disease of soybeans", "assay": "Disease control test of soybean, root rot", "type": "in vivo", "conditions": "4000 g effective ingredient per mu", "description": "as §2"}, "Disease (black fruit)": {"tested_on": "Disease (black fruit)", "assay": "Disease control test of Chinese wolfberry, black fruit", "type": "in vivo, Chinese wolfberry \"Ningqi No. 7\"", "conditions": "1.2 kg active ingredient per mu", "description": "The test was carried out in a Chinese wolfberry planting test plot in Koluke Town, Delingha City, Qinghai Province. Chinese wolfberry plants were all three-year-old seedlings of variety “Ningqi No. 7” at a density of 270 plants/667 m^2. This experiment was designed such that different plots were arranged in order. […] Fertilization method: It was applied together with other base fertilizers, by laying the fertilizer at the bottom of the planting pit, where the depth of the trench was 70 cm, the diameter of the pit was 80 cm, and the soil was mixed in and applied at the bottom when applying fertilizer. The yield, quality and control effect on disease on fresh Chinese wolfberry fruit were determined."}, "stem rot of peanut": {"tested_on": "stem rot of peanut", "assay": "Disease control test of peanut, stem rot", "type": "in vivo", "conditions": "800 g per mu", "description": "(§4) […]. Fertilization method: The fertilizer was applied three times by spraying during the flowering and fruiting period. The yield, quality and control effect on disease on peanut were determined."}, "root rot of potatoes": {"tested_on": "root rot of potatoes", "assay": "Disease control test of potatoes (field), root rot", "type": "in vivo, potato", "conditions": "amount 7000 g active ingredient/mu", "description": "as §3"}, "pepper": {"tested_on": "pepper", "assay": "Yield increase and quality test of pepper", "type": "in vivo", "conditions": "400 g per mu, sprayed during the seedling stage", "description": "as §1"}, "peanut": {"tested_on": "peanut", "assay": "Yield increase and quality test of peanut", "type": "in vivo", "conditions": "800 g per mu, sprayed three times during flowering and fruiting period", "description": "as §4"}, "Chinese wolfberry": {"tested_on": "Chinese wolfberry", "assay": "Yield increase and quality test of Chinese wolfberry", "type": "in vivo, Chinese wolfberry \"Ningqi No. 7\"", "conditions": "1.2 kg active ingredient per mu", "description": "The test was carried out in a Chinese wolfberry planting test plot in Koluke Town, Delingha City, Qinghai Province. Chinese wolfberry plants were all three-year-old seedlings of variety “Ningqi No. 7” at a density of 270 plants/667 m^2. This experiment was designed such that different plots were arranged in order. […]. Fertilization method: It was applied together with other base fertilizers, by laying the fertilizer at the bottom of the planting pit, where the depth of the trench was 70 cm, the diameter of the pit was 80 cm, and the soil was mixed in and applied at the bottom when applying fertilizer. The yield, quality and control effect on disease on fresh Chinese wolfberry fruit were determined."}, "Disease (rot)": {"tested_on": "Disease (rot)", "assay": "Disease control test of tomato, rot", "type": "in vivo", "conditions": "600 g per mu", "description": "This fertilizer was applied on the basis of conventional fertilization in each treatment area. Fertilization method: The fertilizer was applied by spraying during the seedling stage of tomato. The yield, quality and control effect on disease on tomato were determined."}}}
{"substance": "Potassium phosphite", "values": [{"measurement": "Quality: Amino acid", "setting": "tomato", "result": 695.31, "unit": "mg/100 kg"}, {"measurement": "Quality: Vitamin C", "setting": "tomato", "result": 15.69, "unit": "mg/100 g"}, {"measurement": "Yield: Total yield", "setting": "tomato", "result": 3626, "unit": "kg/mu"}, {"measurement": "Yield: Weight of single fruit", "setting": "tomato", "result": 22.6, "unit": "g"}, {"measurement": "Disease (blight): Control effect", "setting": "Disease (blight); 10 days after application", "result": 71.36, "unit": "%"}, {"measurement": "Disease (blight): Disease index", "setting": "Disease (blight); 10 days after application", "result": 3.00}, {"measurement": "Disease (blight): Control effect", "setting": "Disease (blight); 42 days after application", "result": 31.52, "unit": "%"}, {"measurement": "Disease (blight): Disease index", "setting": "Disease (blight); 42 days after application", "result": 12.43}, {"measurement": "Branches", "setting": "soybean", "result": 18.5, "unit": "count"}, {"measurement": "Increase rate (branches)", "setting": "soybean", "result": 6.8, "unit": "%"}, {"measurement": "Increase rate (weight per 100 grains)", "setting": "soybean", "result": 7.1, "unit": "%"}, {"measurement": "Increase rate (yield)", "setting": "soybean", "result": 11.4, "unit": "%"}, {"measurement": "Weight per 100 grains", "setting": "soybean", "result": 26.50, "unit": "g"}, {"measurement": "Yield (667 M^2)", "setting": "soybean; per 667 M^2", "result": 196.7}, {"measurement": "Crude starch content", "setting": "potatoes", "result": 16.8, "unit": "%"}, {"measurement": "Fresh weight of large- and medium-sized potatoes", "setting": "potatoes", "result": 518.8, "unit": "g/plant"}, {"measurement": "Increase rate of crude starch content", "setting": "potatoes", "result": 6.3, "unit": "%"}, {"measurement": "Increase rate of large- and medium-sized potatoes", "setting": "potatoes", "result": 14.8, "unit": "%"}, {"measurement": "Increase rate of yield", "setting": "potatoes", "result": 12.4, "unit": "%"}, {"measurement": "Yield", "setting": "potatoes", "result": 1446, "unit": "kg/mu"}, {"measurement": "Control effect", "setting": "[1]; 12 days after application", "result": 75.42, "unit": "%"}, {"measurement": "Disease index of root rot", "setting": "[1]; 12 days after application", "result": 4.73}, {"measurement": "Control effect", "setting": "[1]; 35 days after application", "result": 36.78, "unit": "%"}, {"measurement": "Disease index of root rot", "setting": "[1]; 35 days after application", "result": 19.93}, {"measurement": "Disease (black fruit): Control effect", "setting": "Disease (black fruit); 10 days after application", "result": 66.51, "unit": "%"}, {"measurement": "Disease (black fruit): Disease index", "setting": "Disease (black fruit); 10 days after application", "result": 5.13}, {"measurement": "Disease (black fruit): Control effect", "setting": "Disease (black fruit); 30 days after application", "result": 45.24, "unit": "%"}, {"measurement": "Disease (black fruit): Disease index", "setting": "Disease (black fruit); 30 days after application", "result": 15.67}, {"measurement": "Disease (Stem rot): Control effect", "setting": "stem rot of peanut; 10 days after application", "result": 78.64, "unit": "%"}, {"measurement": "Disease (Stem rot): Disease index", "setting": "stem rot of peanut; 10 days after application", "result": 3.28}, {"measurement": "Disease (Stem rot): Control effect", "setting": "stem rot of peanut; 30 days after application", "result": 39.36, "unit": "%"}, {"measurement": "Disease (Stem rot): Disease index", "setting": "stem rot of peanut; 30 days after application", "result": 9.31}, {"measurement": "Control effect", "setting": "root rot of potatoes; 10 days after application", "result": 57.59, "unit": "%"}, {"measurement": "Disease index of root rot", "setting": "root rot of potatoes; 10 days after application", "result": 11.56}, {"measurement": "Control effect", "setting": "root rot of potatoes; 30 days after application", "result": 32.47, "unit": "%"}, {"measurement": "Disease index of root rot", "setting": "root rot of potatoes; 30 days after application", "result": 26.19}, {"measurement": "Quality: Vitamin C", "setting": "pepper", "result": 24.4, "unit": "mg/100 g"}, {"measurement": "Yield: Total yield", "setting": "pepper", "result": 3462, "unit": "kg/mu"}, {"measurement": "Yield: Weight of single fruit", "setting": "pepper", "result": 51.8, "unit": "g"}, {"measurement": "Quality: Linoleic acid", "setting": "peanut", "result": 44.61, "unit": "%"}, {"measurement": "Quality: Protein", "setting": "peanut", "result": 23.08, "unit": "%"}, {"measurement": "Yield", "setting": "peanut", "result": 335.7, "unit": "kg/mu"}, {"measurement": "Yield: Seed yield", "setting": "peanut", "result": 70.3, "unit": "%"}, {"measurement": "Yield: Weight per 100 fruits", "setting": "peanut", "result": 122.3, "unit": "g"}, {"measurement": "Quality: Polysaccharide", "setting": "Chinese wolfberry", "result": 8.63, "unit": "%"}, {"measurement": "Quality: Total amino acid content", "setting": "Chinese wolfberry", "result": 7.41, "unit": "%"}, {"measurement": "Yield of fresh Chinese wolfberry fruit: Weight per 100 fruits", "setting": "Chinese wolfberry", "result": 126.8, "unit": "g"}, {"measurement": "Yield of fresh Chinese wolfberry fruit: Yield", "setting": "Chinese wolfberry", "result": 2703.5, "unit": "kg/mu"}, {"measurement": "Disease (rot): Control effect", "setting": "Disease (rot); 12 days after application", "result": 62.42, "unit": "%"}, {"measurement": "Disease (rot): Disease index", "setting": "Disease (rot); 12 days after application", "result": 5.95}, {"measurement": "Disease (rot): Control effect", "setting": "Disease (rot); 45 days after application", "result": 34.52, "unit": "%"}, {"measurement": "Disease (rot): Disease index", "setting": "Disease (rot); 45 days after application", "result": 16.16}]}
